We go through 9 compounds from ChEMBL document CHEMBL3217456 (Medchemcomm, 2014).

Active and inactive are the calls of the source. The calls are words filed in the database; no cut-off is given here.

Test [1] deals with T1, Histamine H3 receptor (Homo sapiens, UniProt Q9Y5N1). The test is described as follows: Intrinsic activity at human recombinant histamine H3 receptor expressed in Sf9 cells coexpressing Galphai2,Gbeta1gamma2 and RGS4 preincubated for 2 mins before [gamma32P]GTP addition measured after 20 mins by steady-state GTPase activity assay relative to histamine.
T1 sequence (Q9Y5N1 whole entry): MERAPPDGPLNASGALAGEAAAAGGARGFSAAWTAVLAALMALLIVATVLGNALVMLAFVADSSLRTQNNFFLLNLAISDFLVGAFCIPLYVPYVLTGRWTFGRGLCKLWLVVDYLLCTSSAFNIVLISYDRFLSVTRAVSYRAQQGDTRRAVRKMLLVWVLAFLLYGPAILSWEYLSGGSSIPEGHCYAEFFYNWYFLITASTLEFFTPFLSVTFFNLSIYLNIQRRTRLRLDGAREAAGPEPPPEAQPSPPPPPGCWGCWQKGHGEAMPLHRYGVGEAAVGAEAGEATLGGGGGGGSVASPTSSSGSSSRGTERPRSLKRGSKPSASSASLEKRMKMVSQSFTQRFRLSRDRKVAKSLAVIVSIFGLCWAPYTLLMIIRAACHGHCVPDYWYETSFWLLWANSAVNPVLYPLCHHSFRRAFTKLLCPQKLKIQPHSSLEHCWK
Test [2] deals with Histamine H2 receptor (Cavia porcellus) (UniProt P47747). The test is described as follows: Agonist activity at guinea pig histamine H2 receptor assessed as potentiation of histamine-induced response after 30 mins relative to histamine.
Histamine H2 receptor (Cavia porcellus), sequence (P47747 whole entry, the tested form may be a part): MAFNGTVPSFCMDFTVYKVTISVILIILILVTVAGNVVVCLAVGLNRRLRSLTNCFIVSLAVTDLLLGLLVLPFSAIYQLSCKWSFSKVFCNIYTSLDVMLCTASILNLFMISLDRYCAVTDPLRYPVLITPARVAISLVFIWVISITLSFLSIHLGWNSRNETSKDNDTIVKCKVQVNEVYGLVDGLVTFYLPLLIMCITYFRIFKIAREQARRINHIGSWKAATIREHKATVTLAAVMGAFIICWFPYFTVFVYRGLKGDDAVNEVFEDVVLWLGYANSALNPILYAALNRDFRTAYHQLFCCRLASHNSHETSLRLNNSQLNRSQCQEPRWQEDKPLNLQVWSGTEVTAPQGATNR
Test [3] concerns the target T2, Histamine H2 receptor (Cavia porcellus, UniProt P47747). Put plainly: Agonist activity at guinea pig atrium histamine H2 receptor assessed as potentiation of histamine-induced response after 30 mins. Further details: species or system Cardiac atrium.
Test [4] has as its target T1, Histamine H3 receptor. Put plainly: Antagonist activity at human recombinant histamine H3 receptor expressed in Sf9 cells coexpressing Galphai2,Gbeta1gamma2 and RGS4 assessed as inhibition of histamine-induced […] hydrolysis preincubated for 2 mins before [gamma32P]GTP addition measured after 20 mins by steady-state GTPase activity assay. In kind it is functional.

In the next test the target is Histamine H1 receptor (Cavia porcellus, UniProt P31389). Put plainly: Antagonist activity at guinea pig ileum histamine H1 receptor assessed as inhibition of histamine-induced response after 10 to 15 mins. In kind it is tissue-based. To be noted: read-out: pA2 (converted).
Histamine H1 receptor, sequence (P31389 whole entry, the tested form may be a part): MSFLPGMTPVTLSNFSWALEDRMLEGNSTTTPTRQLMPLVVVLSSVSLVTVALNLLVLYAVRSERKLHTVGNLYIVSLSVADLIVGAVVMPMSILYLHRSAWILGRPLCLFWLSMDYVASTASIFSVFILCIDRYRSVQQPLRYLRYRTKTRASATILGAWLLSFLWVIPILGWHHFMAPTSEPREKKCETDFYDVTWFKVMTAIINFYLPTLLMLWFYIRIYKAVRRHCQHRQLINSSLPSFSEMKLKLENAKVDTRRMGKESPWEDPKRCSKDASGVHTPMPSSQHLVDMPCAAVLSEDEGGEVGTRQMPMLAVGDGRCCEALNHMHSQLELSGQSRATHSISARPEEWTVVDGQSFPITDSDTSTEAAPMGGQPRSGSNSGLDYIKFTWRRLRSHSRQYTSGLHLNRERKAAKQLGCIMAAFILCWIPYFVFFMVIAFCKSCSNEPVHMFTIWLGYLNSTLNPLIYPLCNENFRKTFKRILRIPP
In test [5] the target is T3, Histamine H2 receptor (Homo sapiens, UniProt P25021). The test is described as follows: Intrinsic activity at human recombinant histamine H2 receptor-Gsalphas fusion protein expressed in Sf9 cells preincubated for 2 mins before [gamma32P]GTP addition measured after 20 mins by steady-state GTPase activity assay relative to histamine.
T3 sequence (P25021 whole entry, the tested form may be a part): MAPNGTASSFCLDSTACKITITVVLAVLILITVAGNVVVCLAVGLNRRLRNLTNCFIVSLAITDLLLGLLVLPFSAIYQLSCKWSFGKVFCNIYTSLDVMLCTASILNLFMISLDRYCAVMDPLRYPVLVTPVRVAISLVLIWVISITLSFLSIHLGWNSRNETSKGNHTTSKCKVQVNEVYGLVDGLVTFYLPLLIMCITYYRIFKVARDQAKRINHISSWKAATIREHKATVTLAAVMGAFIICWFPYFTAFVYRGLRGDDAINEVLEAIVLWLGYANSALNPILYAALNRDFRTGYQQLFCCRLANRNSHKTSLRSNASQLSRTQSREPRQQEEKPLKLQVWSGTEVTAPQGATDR
Test [6] addresses Histamine H1 receptor (Homo sapiens) (UniProt P35367). Put plainly: Antagonist activity at human recombinant histamine H1 receptor expressed in Sf9 cells coexpressing RGS4 assessed as inhibition of histamine-induced […] hydrolysis preincubated for 2 mins before [gamma32P]GTP addition measured after 20 mins by steady-state GTPase activity assay. The class given is functional.

The target in test [7] is T3, Histamine H2 receptor. The test is described as follows: Agonist activity at human recombinant histamine H2 receptor-Gsalphas fusion protein expressed in Sf9 cells preincubated for 2 mins before [gamma32P]GTP addition measured after 20 mins by steady-state GTPase activity assay.
The target in test [8] is T4, Histamine H4 receptor (Homo sapiens, UniProt Q9H3N8). The test is described as follows: Antagonist activity at human recombinant histamine H4 receptor-RGS19 fusion protein expressed in Sf9 cells coexpressing Galphai2,Gbeta1gamma2 assessed as inhibition of histamine-induced […] hydrolysis preincubated for 2 mins before [gamma32P]GTP addition measured after 20 mins by steady-state GTPase activity assay. The class given is functional.
T4 sequence (Q9H3N8 whole entry, the tested form may be a part): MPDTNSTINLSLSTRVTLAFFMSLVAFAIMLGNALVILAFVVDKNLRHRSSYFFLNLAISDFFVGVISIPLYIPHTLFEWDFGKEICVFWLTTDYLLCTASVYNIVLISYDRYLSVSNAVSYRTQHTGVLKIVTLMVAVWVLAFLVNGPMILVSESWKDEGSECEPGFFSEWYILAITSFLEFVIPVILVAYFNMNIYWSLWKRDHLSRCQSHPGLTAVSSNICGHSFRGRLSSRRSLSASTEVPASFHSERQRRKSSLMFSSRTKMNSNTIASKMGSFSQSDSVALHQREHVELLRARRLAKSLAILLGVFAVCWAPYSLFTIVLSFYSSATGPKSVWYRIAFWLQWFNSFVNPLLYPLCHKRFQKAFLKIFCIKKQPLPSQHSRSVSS

Test [9] addresses T4, Histamine H4 receptor. The test is described as follows: Agonist activity at human recombinant histamine H4 receptor-RGS19 fusion protein expressed in Sf9 cells coexpressing Galphai2,Gbeta1gamma2 preincubated for 2 mins before [gamma32P]GTP addition measured after 20 mins by steady-state GTPase activity assay.
The target of test [10] is Histamine H1 receptor (Homo sapiens) (UniProt P35367). Put plainly: Intrinsic activity at human recombinant histamine H1 receptor expressed in Sf9 cells coexpressing RGS4 preincubated for 2 mins before [gamma32P]GTP addition measured after 20 mins by steady-state GTPase activity assay relative to histamine.
Histamine H1 receptor (Homo sapiens), sequence (P35367 whole entry, the tested form may be a part): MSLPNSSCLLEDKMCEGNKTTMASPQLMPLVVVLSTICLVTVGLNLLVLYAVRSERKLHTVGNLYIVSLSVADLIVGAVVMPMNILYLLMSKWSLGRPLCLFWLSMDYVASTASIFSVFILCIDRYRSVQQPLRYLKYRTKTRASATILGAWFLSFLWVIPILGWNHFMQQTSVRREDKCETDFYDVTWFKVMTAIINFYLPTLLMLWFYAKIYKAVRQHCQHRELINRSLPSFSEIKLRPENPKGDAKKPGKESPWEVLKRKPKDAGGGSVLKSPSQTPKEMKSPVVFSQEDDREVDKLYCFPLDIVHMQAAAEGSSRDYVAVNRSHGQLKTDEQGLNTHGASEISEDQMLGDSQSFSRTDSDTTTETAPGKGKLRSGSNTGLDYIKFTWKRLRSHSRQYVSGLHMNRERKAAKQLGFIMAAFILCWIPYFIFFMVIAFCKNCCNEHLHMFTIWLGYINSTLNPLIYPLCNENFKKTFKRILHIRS
The target of test [11] is T4, Histamine H4 receptor. Put plainly: Intrinsic activity at human recombinant histamine H4 receptor-RGS19 fusion protein expressed in Sf9 cells coexpressing Galphai2,Gbeta1gamma2 preincubated for 2 mins before [gamma32P]GTP addition measured after 20 mins by steady-state GTPase activity assay relative to histamine.
Test [12] concerns the target T3, Histamine H2 receptor. The test is described as follows: Antagonist activity at human recombinant histamine H2 receptor-Gsalphas fusion protein expressed in Sf9 cells assessed as inhibition of histamine-induced […] hydrolysis preincubated for 2 mins before [gamma32P]GTP addition measured after 20 mins by steady-state GTPase activity assay. The class given is functional.

Test [13] has as its target Histamine H2 receptor (Cavia porcellus) (UniProt P47747). Put plainly: Antagonist activity at guinea pig histamine H2 receptor assessed as reduction of histamine-induced maximal response after 30 mins.
The target is the same in test [14]. The test is described as follows: Agonist activity at guinea pig histamine H2 receptor assessed as potentiation of histamine-induced response at 30 uM after 30 mins relative to histamine.
For test [15], the target named is T2, Histamine H2 receptor. Put plainly: (§1) Antagonist activity at guinea pig histamine H2 receptor assessed as inhibition of histamine-induced response after 30 mins. As to conditions: read-out: pA2 (converted).
The target of test [16] is Histamine H2 receptor (Cavia porcellus) (UniProt P47747). The test is described as follows: Agonist activity at guinea pig histamine H2 receptor assessed as potentiation of histamine-induced response at 10 uM after 30 mins relative to histamine.
Test [17] deals with T3, Histamine H2 receptor. The test is described as follows: Antagonist activity at human recombinant histamine H2 receptor-Gsalphas fusion protein expressed in Sf9 cells assessed as inhibition of histamine-induced [35S]GTPgammaS binding after 90 mins by liquid scintillation counting. The class given is functional. In general terms: GTPγS is a poorly hydrolysed GTP analogue; its binding reports G protein activation.

Test [18] is described as follows: Selectivity ratio of EC50 for human recombinant histamine H3 receptor expressed in Sf9 cells coexpressing Galphai2,Gbeta1gamma2 and RGS4 to EC50 for human recombinant histamine H4 receptor-RGS19 fusion protein expressed in Sf9 cells coexpressing Galphai2,Gbeta1gamma2.
Test [19] has as its target T1, Histamine H3 receptor. Put plainly: Intrinsic activity at human recombinant histamine H3 receptor expressed in Sf9 cells coexpressing Galphai2,Gbeta1gamma2 and RGS4 assessed as [35S]GTPgammaS binding at 10 uM after 90 mins by liquid scintillation counting relative to histamine. In kind it is functional.
A short description of test [20]: Selectivity ratio of EC50 for human recombinant histamine H1 receptor expressed in Sf9 cells coexpressing RGS4 to EC50 for human recombinant histamine H4 receptor-RGS19 fusion protein expressed in Sf9 cells coexpressing Galphai2,Gbeta1gamma2.
Test [21] deals with T3, Histamine H2 receptor. Put plainly: Intrinsic activity at human recombinant histamine H2 receptor-Gsalphas fusion protein expressed in Sf9 cells assessed as [35S]GTPgammaS binding at 10 uM after 90 mins by liquid scintillation counting relative to histamine. In kind it is functional.
Test [22] can be described thus: Selectivity ratio of EC50 for human recombinant histamine H2 receptor-Gsalphas fusion protein expressed in Sf9 cells to EC50 for human recombinant histamine H4 receptor-RGS19 fusion protein expressed in Sf9 cells coexpressing Galphai2,Gbeta1gamma2.
The target of test [23] is T4, Histamine H4 receptor. The test is described as follows: Agonist activity at human recombinant histamine H4 receptor-RGS19 fusion protein expressed in Sf9 cells coexpressing Galphai2,Gbeta1gamma2 assessed as [35S]GTPgammaS binding after 90 mins by liquid scintillation counting. In kind it is functional.
For test [24], the target named is T1, Histamine H3 receptor. Put plainly: Antagonist activity at human recombinant histamine H3 receptor expressed in Sf9 cells coexpressing Galphai2,Gbeta1gamma2 and RGS4 assessed as inhibition of histamine-induced [35S]GTPgammaS binding after 90 mins by liquid scintillation counting. In kind it is functional.
In test [25] the target is T4, Histamine H4 receptor. The test is described as follows: Intrinsic activity at human recombinant histamine H4 receptor-RGS19 fusion protein expressed in Sf9 cells coexpressing Galphai2,Gbeta1gamma2 assessed as [35S]GTPgammaS binding at 10 uM after 90 mins by liquid scintillation counting relative to histamine. The class given is functional.
The target in test [26] is T2, Histamine H2 receptor. The test is described as follows: Agonist activity at guinea pig histamine H2 receptor assessed as potentiation of histamine-induced response at after 30 mins.
Test [27] concerns the target Histamine H2 receptor (Cavia porcellus) (UniProt P47747). The description is as §1.

As usually defined, the EC50 is the concentration needed to bring the measured effect to its halfway point. By pKb is commonly meant the negative decadic logarithm of the Kb, by convention in mol/L. As usually defined, the Emax is the size of the effect at its maximum, as opposed to the concentration needed.

T2 sequence (P47747 whole entry): as the sequence (P47747 whole entry, the tested form may be a part) above

In the case of `CC(CC(=O)/N=C(\N)NCCCc1cn[nH]c1)c1ccccc1` (stereo not given), the values for the Intrinsic activity at Histamine H3 receptor [1] and on Histamine H2 receptor [5] were 0.04 and 0.44, respectively. In addition, the Efficacy in [2] is 54%. Moreover, the 50% effective concentration (EC50) is 468 nM on Histamine H2 receptor [3] and 240 nM at Histamine H2 receptor [7]. In addition, the pKb (at Histamine H3 receptor [4]; in test [6]; on Histamine H4 receptor [8]) was less than 5 in each case. On Histamine H1 receptor, the Kb was 3800 nM.
For the compound `N/C(=N\C(=O)CC(c1ccccc1)c1ccccc1)NCCCc1ncn[nH]1`, the Intrinsic activity at Histamine H3 receptor [1] was -0.03; at Histamine H2 receptor [5], 0.42; in test [10] it was 0.06. Besides, the Efficacy in test [2] turned out to be 83%. The EC50 on Histamine H2 receptor [3] is 204 nM; at Histamine H2 receptor [7] it was 407 nM. Besides, the pKb (at Histamine H3 receptor [4]; in test [6]) was less than 5 throughout. The Kb at Histamine H1 receptor was 1620 nM. At Histamine H4 receptor [9], the pEC50 entry is “inactive”.
For `CC(CC(=O)/N=C(\N)NCCCc1ncc[nH]1)c1ccccc1` (stereo not given), the Intrinsic activity on Histamine H4 receptor [11] is 0.35; at Histamine H3 receptor [1], -0.32; at Histamine H2 receptor [5], 0.03; in [10] it was 0.09. Moreover, the pKb is 5.41 at Histamine H3 receptor [4], 5.3 on Histamine H2 receptor [12] and less than 5 in test [6]. Moreover, the pD'2 in test [13] is 4.44. For the same compound, on Histamine H4 receptor [9], the EC50 was 2880 nM. Moreover, the Emax in test [14] is 54%. Also, at Histamine H2 receptor [15], the Kb is 12600 nM.
In the case of `CC(CC(=O)/N=C(\N)NCCCc1ccc(CN(C)C)o1)c1ccccc1` (stereo not given), the Intrinsic activity at Histamine H3 receptor [1] was -0.64; on Histamine H2 receptor [5] it was -0.12; in test [10], 0.04. The Efficacy in [2] turned out to be 0%. Also, the pKb on Histamine H3 receptor [4] was 5.92; at Histamine H2 receptor [12], 6.52; in [6] it was less than 5; at Histamine H4 receptor [8], less than 5. For the same compound, on Histamine H1 receptor, the Kb is 3020 nM. For the same compound, in test [16], the Emax is 68%.
In the case of `CC(CC(=O)/N=C(\N)NCCCn1ccnc1)c1ccccc1` (stereo not given), the figures for the Intrinsic activity on Histamine H4 receptor [11] and on Histamine H3 receptor [1] were 0.77 and -0.05, respectively. The pKb (on Histamine H3 receptor [4]; on Histamine H2 receptor [12]; in test [6]) was less than 5 each time. Moreover, the Kb was 1120 nM at Histamine H1 receptor and more than 31600 nM on Histamine H2 receptor [15]. Also, the pD'2 in test [13] was found to be 4.16. Besides, the EC50 on Histamine H4 receptor [9] is 1000 nM. Also, the Emax in [14] was determined as 69%.
As to `Cc1[nH]cnc1CCCCN/C(=N\C#N)NCCSc1ccccc1`, the pKb on Histamine H2 receptor [17] was 5.36; in [6], less than 5.3; at Histamine H3 receptor [24], 5.5. Besides, the Ratio EC50 in test [18], in test [20] and in [22] was more than 10 in each case. Also, the Intrinsic activity on Histamine H3 receptor [19] was -0.65; at Histamine H2 receptor [21], -0.06; in [10] it was -0.03; on Histamine H4 receptor [25], 0.37. Also, the EC50 on Histamine H4 receptor [23] is 245 nM.
`CC(CC(=O)/N=C(\N)NCCCc1ncn[nH]1)c1ccccc1` (stereo not given): the Intrinsic activity at Histamine H3 receptor [1] was -0.03; on Histamine H2 receptor [5], 0.66. Moreover, the Efficacy in test [2] was found to be 100%. Moreover, the pKb (on Histamine H3 receptor [4]; in [6]) was less than 5 throughout. The Kb on Histamine H1 receptor was 1480 nM; at Histamine H2 receptor [15], 479 nM. The EC50 at Histamine H2 receptor [26] is 100 nM; at Histamine H2 receptor [7] it was 741 nM. The pEC50 result on Histamine H4 receptor [9] was “inactive”.
As for `CC(CC(=O)/N=C(\N)NCCCc1ccncc1)c1ccccc1` (stereo not given), the Intrinsic activity is -0.07 on Histamine H3 receptor [1], 0 at Histamine H2 receptor [5] and 0.12 in [10]. For the same compound, the pKb at Histamine H3 receptor [4] is less than 5; at Histamine H2 receptor [12], 5.54; in test [6] it was less than 5; on Histamine H4 receptor [8] it was less than 5. Besides, the pD'2 in test [13] is 4.54. The Kb on Histamine H2 receptor [15] is 19100 nM. Also, the pD2 in test [27] stood at 4.54.
In the case of `CC(CC(=O)/N=C(\N)NCCCc1ccccn1)c1ccccc1` (stereo not given), the figures for the Intrinsic activity (at Histamine H3 receptor [1]; on Histamine H2 receptor [5]; in [10]) were -0.17, 0.3 and 0.21, respectively. For the same compound, the Efficacy in test [2] was 26%. Moreover, the EC50 on Histamine H2 receptor [3] is 195 nM; at Histamine H2 receptor [7] it was 832 nM. Further, the results for the pKb (at Histamine H3 receptor [4]; in [6]; on Histamine H4 receptor [8]) were less than 5, 5.34 and less than 5, respectively.
